Data on two molecules can be found in patent US12338229B2, “Small molecule stimulators of steroid receptor coactivator-3 and methods of their use as cardioprotective and/or vascular regenerative agents” (BAYLOR COLLEGE OF MEDICINE, priority 2018, dated 2025).

Read-outs that look alike come from different tables or passages of the source.

For data set [1] the following is noted: mouse, in vivo.
Procedure: (§1) Each of the three compounds was dissolved in DMSO (20 mg/mL), mixed with 30% hydroxypropyl-β-cyclodextrin at a 1:9 ratio, and administered to the CD-1 mice intraperitoneally (ip) or orally (po) through a gavage. After compound administration, blood samples (3 mice per compound) were collected at nine time points, i.e., at 5 minutes, 0.25 hours, 0.5 hours, 1 hour, 2 hours, 4 hours, 8 hours, 12 hours, and 24 hours, through the tail vein. Plasma was isolated from these blood samples and the compound plasma concentrations were determined by HPLC-MS/MS. Pharmacokinetic parameters were calculated using the program PKSolver, an add-in program for use in analyzing pharmacokinetic and pharmacodynamics data analysis, as described in Zhang et al., Computer Methods and Programs in Biomedicine, 99: 306-314 (2010).
Data set [2] relates to mice after myocardial infarction. The data set is described as follows: Myocardial infarction model, permanent LAD ligation (echocardiography, histology, immunostaining, PET, EM). Conditions: six weeks post-MI, picrosirius red. The format is in vivo, ICR (CD1) mice. The procedure:
Model of heart failure in adult mice. To induce myocardial infarction (MI) in 8- to 10-week-old mice, the left anterior descending (LAD) artery was permanently ligated. Briefly, mice were anesthetized with 2% isoflurane and then intubated. The heart was exposed by performing a thoracotomy through the fourth or fifth intercostal space and an 8-0 nylon suture was tied around the LAD artery. 10 uls of Adenoviral SRC-3 (Ad-SRC-3) or adenoviral GFP (Ad-GFP) at a titre of 9×10^9 pfu/ml was injected into the anterior free wall near left ventricular descending coronary artery. To assess cell cycle entry, the analog 5-ethynyl-2′-deoxyuridine (EdU; 0.2 g/L, Santa Cruz, SC-284628A) was added to the drinking water for the 9 day duration of the experiment. Cell proliferation was measured using Click-iT EdU kit (Invitrogen, C10339). The initial dose of MCB-613 was administered intraperitoneally at 20 mg/kg 2 hours after surgery. Subsequent injections of the same dose were given for 6 additional days, and then repeated doses were given for 3 days at week 9 and week 16. Mice were harvested at indicated time points for analyses.
Echocardiography. Cardiac function was determined by echocardiography (VisualSonics, Vevo 2100, 40 Mhz-550S probe). After alignment in the transverse B-mode with the papillary muscles, cardiac function was measured on M-mode images.
Histological analysis. Whole hearts were fixed with 10% formalin, embedded in paraffin, and sectioned at 7 μm intervals. Each slide had […], which started at the apex and ended at the suture ligation site (approximately 30-50 slides). Sections at the papillary level (slides 20-30) were stained with Picrosirius red to identify areas of fibrosis. Infarct size was determined using a length-based approach.
Immunostaining analysis. Immunohistochemistry and immunofluorescent staining experiments were performed on FFPE (formalin-fixed and paraffin-embedded sections). TUNEL staining to detect apoptotic cells was done using the DeadEnd™ Fluorometric TUNEL System manufacturer's protocol (Promega, GS3250).
Model of heart failure in adult mice. To induce MI in eight- to ten-week-old mice, the left anterior descending (LAD) artery was permanently ligated. Briefly, mice were anesthetized with 2% isoflurane and then intubated. The heart was exposed by performing a thoracotomy through the fourth or fifth intercostal space and an 8-0 nylon suture was tied around the LAD. The initial dose of MCB-613 was administered intraperitoneally at 20 mg/kg, two hours after surgery. Subsequent injection at the same time of the day and same dose were given for six additional days, and then repeated doses were given for three days at week nine and week 16. Mice were harvested at the indicated time points for analyses.
Echocardiography. Cardiac function was determined by echocardiography (VisualSonics, Vevo 2100, 40 Mhz-550S probe). After alignment in the transverse B-mode with the papillary muscles, cardiac function was measured on M-mode images. Animal numbers for cardiac function in FIG. 11A are Day 0 control (17); MCB-613 (15), Day 1 control (10); MCB-613 (12), Day 14 […], Day 56 control (12); MCB-613 (15), Day 70 control (8); MCB-613 (10), Day 80 control (8); MCB-613 (11), Day 133 control (3); and MCB-613 (3).
Histological analysis. Whole hearts were fixed with 10% formalin, embedded in paraffin, and sectioned at 7 μm intervals. Each slide had three (3) to ten (10) sections, which started at the apex and ended at the suture ligation site (approximately 30-50 slides). Sections at the papillary level (slides 20-30) were stained with Picrosirius red to identify areas of fibrosis. Infarct size was determined using a length-based approach. TUNEL staining to detect apoptotic cells was performed using the DeadEnd™ Fluorometric TUNEL System (Promega, GS3250).
Electron Microscopy. […]

Data set [3] shares this test system. Put plainly: Progressive maximal exercise test, indirect calorimetry (VO2, VCO2). The format is in vivo. Conditions: after myocardial infarction. Here is the method:
RER, VO2 and VCO2 measurements. Respiratory exchange ratio (RER), oxygen consumption (VO^2) and carbon dioxide expiration (VCO2) were measured by indirect calorimetry using a progressive maximal exercise test until mice reached exhaustion.
RER, VO2 and VCO2 measurements. RER, VO2 and VCO2 were measured by indirect calorimetry using a progressive maximal exercise test until mice reached exhaustion.

Data set [4] concerns SRC-1, SRC-2 or SRC-3 fused with the DNA binding domain of Gal4. The data set is described as follows: Gal4 luciferase reporter (pG5-luc / pBIND-SRC) in HeLa cells. Type of data set: cell-based. To be noted: pG5-luc + pBIND-SRC-1, -2 or -3. From the text: The compounds described herein stimulate SRC intrinsic transcriptional activity. HeLa cells transfected with a Gal4 responsive luciferase reporter (pG5-luc) and a construct encoding SRC-1, SRC-2 or SRC-3 fused with the DNA binding domain of Gal4 (pBIND-SRC-1, pBIND-SRC-2 or pBIND-SRC-3) were exposed to treatments with compounds as described herein, including MCB-613, Compound 10-1, and Compound 10-2.

Data set [5] is described as follows: in vivo. To be noted: CD-1, mouse.
Procedure: as §1

For `COc1ccccc1/C=C1\CN(CCC(C)C)C/C(=C\c2ccccc2OC)C1=O` [Compound 10-1, (3E,5E)-1-isopentyl-3,5-bis(2-methoxybenzylidene)piperidin-4-one], the figures for the Cl in data set [1] (ip) and in data set [1] (po) were 0.97 (mg)/(ng/mL)/h and 7.3 (mg)/(ng/mL)/h, respectively. Moreover, the “infarct size vs saline control” value in data set [2] is “decrease in infarct size”. For the same molecule, in data set [3], the “cardiovascular fitness (VCO2, VO2, FIG. 9)” value is reported as “improves cardiovascular fitness after myocardial infarction”. Besides, in data set [4], the “intrinsic transcriptional activity of SRCs (luciferase)” value was “selectively stimulates the intrinsic transcriptional activity of SRCs”. For the same molecule, the AUC(0-inf) in data set [5] (ip) was 851 ng·h/mL; in data set [5] (po), 113 ng·h/mL. For the same molecule, the values for the AUC(0-t) in data set [5] (ip) and in data set [5] (po) were 623 ng·h/mL and 98.4 ng·h/mL, respectively. The Cmax in data set [5] (ip) came to 357 ng/mL; in data set [5] (po), 53.2 ng/mL. The figures for the Tmax in data set [5] (ip) and in data set [5] (po) were 15 min and 30 min, respectively. Besides, the half-life in data set [5] (ip, Terminal phase t1/2) was 1090 min; in data set [5] (ip, t1/2) it was 38.4 min; in data set [5] (po, Terminal phase t1/2), 612 min; in data set [5] (po, t1/2) it was 72 min.

As to `COc1cccc(/C=C2\CN(CCC(C)C)C/C(=C\c3cccc(OC)c3)C2=O)c1` [Compound 10-2, (3E,5E)-1-isopentyl-3,5-bis(3-methoxybenzylidene)piperidin-4-one], the Cl in data set [1] (ip) was 1.7 (mg)/(ng/mL)/h; in data set [1] (po) it was 6.1 (mg)/(ng/mL)/h. Besides, in data set [4], the “intrinsic transcriptional activity of SRCs (luciferase)” value is listed as “selectively stimulates the intrinsic transcriptional activity of SRCs”. The AUC(0-inf) in data set [5] (ip) was determined as 482 ng·h/mL; in data set [5] (po) it was 135 ng·h/mL. Further, the AUC(0-t) came out at 334 ng·h/mL in data set [5] (ip) and 131 ng·h/mL in data set [5] (po). Also, the figures for the Cmax in data set [5] (ip) and in data set [5] (po) were 463 ng/mL and 182 ng/mL, respectively. Moreover, the figures for the Tmax in data set [5] (ip) and in data set [5] (po) were 4.8 min and 15 min, respectively. Besides, the half-life is 954 min in data set [5] (ip, Terminal phase t1/2); 15 min in data set [5] (ip, t1/2); 1630 min in data set [5] (po, Terminal phase t1/2); 46.8 min in data set [5] (po, t1/2).
